Patent publication US11459315B2, “Modulators of methyl modifying enzymes, compositions and uses thereof” (Constellation Pharmaceuticals, Inc., priority 2017, dated 2022)

System: H3K27me3 mark in HeLa cells (EZH2)
Test: H3K27me3 Alpha Hela Assay (AlphaLISA)
Type: cell-based
Conditions: HeLa cell assay; Table 3 classes; read-out: EC50 Cellular Activity
Description: H3K27me3 Alpha Hela Assay (AlphaLISA). Ten different doses of each test compound (in a series of 3-fold dilutions) were plated in duplicate 384-well tissue culture treated plates (Catalog #6007680; Perkin Elmer, Waltham, Mass.). Hela cells grown in culture were trypsinized and counted using a Countess® cell counter (Catalog #C10281; Life Technologies, Grand Island, N.Y.). Cell were diluted to 67,000 cells per mL in 10% DMEM (Catalog #10569-010 Life Technologies, Grand Island, N.Y.) and 15 μL (1,000 cells) were plated into each well using the Biotek MicroFlo™ Select Dispenser (BioTek Instruments, Inc. Vermont, USA),) of the 384-well plate. Plates were incubated at 37° C./5% CO2 for 72 hrs. One of the duplicate plates was processed for HeLa assay and the other for viability.
5 μL of Cell-Histone Lysis buffer (1×) (Catalog #AL009F1 Perkin Elmer; Waltham, Mass.) per well was added to the plate processed for AlphaLISA and the plate was incubated at RT for 30 minutes on a plate shaker with low speed (Model #4625-Q Thermo Scientific; Waltham, Mass.). Then, 10 μL per well Histone Extraction buffer (catalog #AL009F2; Perkin Elmer; Waltham, Mass.) was added and the plate further incubated at RT for 20 min on plate shaker with low speed. Next, 10 μL of 5× mix of anti-K27me3 acceptor beads plus Biotinylated anti-Histone H3 (C-ter) Antibody (diluted to 3 nM final) (Catalog #AL118 Perkin Elmer; Waltham, Mass.) was added in each well. Dilution of the acceptor beads and anti-Histone H3 was done in 1× Histone Detection buffer (Catalog #AL009F3 Perkin Elmer; Waltham, Mass.) which was produced by diluting the 10× stock provided. The plate was sealed with an aluminum plate sealer and incubated at 23° C. for 60 min. Next, 10 μL 5× solution of Streptavidin Donor beads were added (Catalog #6760002 Perkin Elmer; Waltham, Mass.) (20 μg/mL final in 1× Histone Detection Buffer), =plate was sealed with Aluminum plate sealer and incubated at 23° C. for 30 min. The plates were then read using an EnVision-Alpha Reader (model #2104 Perkin Elmer; Waltham, Mass.).
Data from both assays was analyzed using Genedata (Basel, Switzerland). Data files were imported to Genedata and assay conditions were specified. A unique Analysis ID was created and the data files analysed to measure dose-dependent inhibition of H3K27me3 mark and cell viability respectively. Readout of DMSO wells were used to normalize the data. Resulting curves were fitted using Smart fit application (Genedata; Basel, Switzerland). The data was checked for quality, validated and integrated in excel format using Stardrop (Optibruim, Cambridge, UK).
EC50 values are reported as follows: “A” indicates an EC50 value of less than 10 nM; “B” indicates an EC50 value of 10 nM to 100 nM; “C” indicates an EC50 value of greater than 100 nM; and “ND” is not determined.

First: Cc1cc(Cl)c(CNC(=O)c2c(C)n([C@H](C)C3OCC(NC(C)(C)C)CO3)c3ccccc23)c(=O)[nH]1 (single isomer, unassigned) [drawing 222]
Second: CSc1cc(C)[nH]c(=O)c1CNC(=O)c1c(C)n([C@H](C)C2CCC(NC3(C)CCOC3)CC2)c2ccccc12 (single isomer, unassigned) [drawing 270]
The EC50 of the first is lower: 0.005 to 0.025 µM for the first, 0.025 to 0.125 µM for the second. The first is the more potent here.

First: CSc1cc(C)[nH]c(=O)c1CNC(=O)c1c(C)n([C@H](C)C2CCC(N3CC(OC(F)F)C3)CC2)c2ccccc12 (single isomer, unassigned) [drawing 253]
Second: COC1CN(C2CCC([C@@H](C)n3c(C)c(C(=O)NCc4c(SC)cc(C)[nH]c4=O)c4cccnc43)CC2)C1 (single isomer, unassigned) [drawing 260]
The EC50 of the first is lower: 0.005 to 0.025 µM for the first, greater than 0.125 µM for the second.

CCOC1CN(C2CCC([C@@H](C)n3c(C)c(C(=O)NCc4c(SC)cc(C)[nH]c4=O)c4cccnc43)CC2)C1 (single isomer, unassigned) [drawing 262] showed an EC50 of 0.025 to 0.125 µM.

Same assay, conditions: HeLa cells, 72 hrs; read-out: EZH2 Cell H3K27me3 Alpha HeLa (EC50 K27me3)

CSc1cc(C)[nH]c(=O)c1CNC(=O)c1c(C)n([C@H](C)[C@H]2CC[C@H](NC3(C)COC3)CC2)c2ccccc12 (single isomer, unassigned) [1 (isomer 2)] and CSc1cc(C)[nH]c(=O)c1CNC(=O)c1c(C)n([C@H](C)C2CCC(N(C)C3(C)COC3)CC2)c2ccccc12 (single isomer, unassigned) [3 (isomer 2)] fall in the same range of EC50: 0.01 to 0.1 µM for the first, 0.01 to 0.1 µM for the second.

CSc1cc(C)[nH]c(=O)c1CNC(=O)c1c(C)n([C@H](C)C2CCC(NC3COC3)CC2)c2ccccc12 (single isomer, unassigned) [2 (isomer 2)] and COC1CN(C2CCC([C@@H](C)n3c(C)c(C(=O)NCc4c(SC)cc(C)[nH]c4=O)c4ccccc43)CC2)C1 (single isomer, unassigned) [4 (isomer 2)] fall in the same range of EC50: 0.01 to 0.1 µM for the first, 0.01 to 0.1 µM for the second.

CSc1cc(C)[nH]c(=O)c1CNC(=O)c1c(C)n([C@H](C)C2OCC(NC(C)(C)C)CO2)c2ccccc12 (single isomer, unassigned) [5 (isomer 2)] was tested, and the EC50 was less than 0.01 µM.

Same assay, conditions: Homo sapiens, HeLa, 72 h, HeLa cells, 72 hrs; read-out: EZH2 Cell H3K27me3 Alpha HeLa (EC50 K27me3)

CSc1cc(C)[nH]c(=O)c1CNC(=O)c1c(C)n([C@H](C)[C@H]2CC[C@H](NC3(C)COC3)CC2)c2ccccc12 (single isomer, unassigned) [1 (isomer 1)] and CSc1cc(C)[nH]c(=O)c1CNC(=O)c1c(C)n([C@H](C)C2CCC(N(C)C3(C)COC3)CC2)c2ccccc12 (single isomer, unassigned) [3 (isomer 1)] cannot be ordered by EC50: less than 0.01 µM for the first, less than 0.01 µM for the second.

CSc1cc(C)[nH]c(=O)c1CNC(=O)c1c(C)n([C@H](C)C2CCC(NC3COC3)CC2)c2ccccc12 (single isomer, unassigned) [2 (isomer 1)] and COC1CN(C2CCC([C@@H](C)n3c(C)c(C(=O)NCc4c(SC)cc(C)[nH]c4=O)c4ccccc43)CC2)C1 (single isomer, unassigned) [4 (isomer 1)] cannot be ordered by EC50: less than 0.01 µM for the first, less than 0.01 µM for the second.

Work on CSc1cc(C)[nH]c(=O)c1CNC(=O)c1c(C)n([C@H](C)C2OCC(NC(C)(C)C)CO2)c2ccccc12 (single isomer, unassigned) [5 (isomer 1)] yielded an EC50 of 0.01 to 0.1 µM.

Same assay, conditions: Homo sapiens, HeLa, HeLa cell assay; Table 3 classes; read-out: EC50 Cellular Activity

Cc1cc(C)c(CNC(=O)c2c(C)n([C@H](C)C3CCOCC3)c3ccccc23)c(=O)[nH]1 and COc1cc(C)[nH]c(=O)c1CNC(=O)c1c(C)n([C@H](C)C2CCOCC2)c2ccccc12 fall in the same range of EC50: 0.025 to 0.125 µM for the first, 0.025 to 0.125 µM for the second.

Compound COC1CCC([C@@H](C)n2c(C)c(C(=O)NCc3c(SC)cc(C)[nH]c3=O)c3ccccc32)CC1 (single isomer, unassigned) [drawing 249] has an EC50 of less than 0.005 µM.

Target: PRC2 containing wt EZH2 (Homo sapiens (Human), UniProt Q15910)
Test: EZH2 biochemical assay (IC50), 3H-SAM incorporation into biotinylated H3 peptide
Conditions: 30 pM PRC2 containing wt EZH2; 3-5 h pre-incubation; read-out: EZH2 (IC50)
Description: EZH2 biochemical assay (IC50): Compound potencies were assessed through incorporation of ^3H-SAM into a biotinylated H3 peptide. Specifically, 30 pM PRC2 containing wt EZH2 (pentameric complex prepared in-house) was pre-incubated with 450 nM SAM, 450 nM ^3H-SAM, 2 μM H3K27me3 activating peptide (H2N-[…](Kme3)[…]-amide) and compounds (as 10 point duplicate dose response titrations in DMSO, final assay 0.8% DMSO (v/v)) for 3-5 h in 50 mM Tris (pH 8.5), 1 mM DTT, 0.07 mM Brij-35, 0.1% BSA, and 0.8% DMSO in a total volume of 12.5 μl. Reaction was initiated with biotinylated H3 substrate peptide (H2N-[…](Kme1)[…]-NTPEGBiot) as a 2 μM stock in 12.5 μl of buffer and allowed to react at room temperature for 18-22 h. Quenching was accomplished by addition of 20 μl of STOP solution (50 mM Tris (pH 8.5), 200 mM EDTA, 2 mM SAH). 35 μl of the quenched solution was transferred to streptavidin coated FlashPlates (PerkinElmer), incubated 1-2 h, washed, and read in a TopCount Reader (PerkinElmer). IC50s were calculated in Genedata Screener using non-linear least square four parameter fits, where the four parameters were IC50, Hill slope, pre-transitional baseline (0% INH), and post-transitional baseline (100% INH).
IC50 values are reported as follows: “A” indicates an IC50 value of less than 0.5 nM; “B” indicates an IC50 value of 0.5 nM to 5 nM; “C” indicates an IC50 value of greater than 5 nM for each enzyme; and “ND” is not determined.

Sequence of PRC2 containing wt EZH2 (Q15910 whole entry): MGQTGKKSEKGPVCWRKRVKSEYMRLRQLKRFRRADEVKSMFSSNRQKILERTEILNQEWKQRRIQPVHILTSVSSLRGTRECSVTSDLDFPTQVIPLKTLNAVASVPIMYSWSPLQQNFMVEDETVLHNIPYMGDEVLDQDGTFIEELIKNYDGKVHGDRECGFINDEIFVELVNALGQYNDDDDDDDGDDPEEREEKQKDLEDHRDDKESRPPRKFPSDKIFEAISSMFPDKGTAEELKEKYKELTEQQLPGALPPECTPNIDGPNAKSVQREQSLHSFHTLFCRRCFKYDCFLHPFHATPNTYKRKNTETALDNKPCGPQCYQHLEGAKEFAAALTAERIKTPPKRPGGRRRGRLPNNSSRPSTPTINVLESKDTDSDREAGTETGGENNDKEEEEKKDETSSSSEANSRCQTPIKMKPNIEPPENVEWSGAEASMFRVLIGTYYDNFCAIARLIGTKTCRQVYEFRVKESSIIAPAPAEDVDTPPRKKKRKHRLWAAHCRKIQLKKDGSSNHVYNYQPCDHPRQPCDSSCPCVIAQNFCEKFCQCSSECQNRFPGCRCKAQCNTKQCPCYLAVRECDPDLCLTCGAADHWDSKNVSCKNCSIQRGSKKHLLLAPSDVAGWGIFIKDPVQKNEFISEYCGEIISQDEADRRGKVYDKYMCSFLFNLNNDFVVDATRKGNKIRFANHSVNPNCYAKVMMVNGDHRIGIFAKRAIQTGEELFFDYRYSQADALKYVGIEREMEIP
Sequence of PRC2 containing wt EZH2 (O75530 whole entry partner): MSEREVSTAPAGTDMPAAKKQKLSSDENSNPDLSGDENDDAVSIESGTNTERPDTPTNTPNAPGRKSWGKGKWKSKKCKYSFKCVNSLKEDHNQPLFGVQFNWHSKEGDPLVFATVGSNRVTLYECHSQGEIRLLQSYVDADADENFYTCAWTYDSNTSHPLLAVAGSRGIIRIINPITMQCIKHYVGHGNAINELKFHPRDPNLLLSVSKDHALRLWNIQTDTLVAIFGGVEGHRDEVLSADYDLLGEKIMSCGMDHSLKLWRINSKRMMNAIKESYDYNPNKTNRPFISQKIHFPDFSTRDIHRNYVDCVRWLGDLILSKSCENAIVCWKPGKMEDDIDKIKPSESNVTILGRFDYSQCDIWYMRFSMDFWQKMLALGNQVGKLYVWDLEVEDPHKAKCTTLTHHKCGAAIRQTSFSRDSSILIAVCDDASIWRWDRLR
Sequence of PRC2 containing wt EZH2 (Q15022 whole entry partner): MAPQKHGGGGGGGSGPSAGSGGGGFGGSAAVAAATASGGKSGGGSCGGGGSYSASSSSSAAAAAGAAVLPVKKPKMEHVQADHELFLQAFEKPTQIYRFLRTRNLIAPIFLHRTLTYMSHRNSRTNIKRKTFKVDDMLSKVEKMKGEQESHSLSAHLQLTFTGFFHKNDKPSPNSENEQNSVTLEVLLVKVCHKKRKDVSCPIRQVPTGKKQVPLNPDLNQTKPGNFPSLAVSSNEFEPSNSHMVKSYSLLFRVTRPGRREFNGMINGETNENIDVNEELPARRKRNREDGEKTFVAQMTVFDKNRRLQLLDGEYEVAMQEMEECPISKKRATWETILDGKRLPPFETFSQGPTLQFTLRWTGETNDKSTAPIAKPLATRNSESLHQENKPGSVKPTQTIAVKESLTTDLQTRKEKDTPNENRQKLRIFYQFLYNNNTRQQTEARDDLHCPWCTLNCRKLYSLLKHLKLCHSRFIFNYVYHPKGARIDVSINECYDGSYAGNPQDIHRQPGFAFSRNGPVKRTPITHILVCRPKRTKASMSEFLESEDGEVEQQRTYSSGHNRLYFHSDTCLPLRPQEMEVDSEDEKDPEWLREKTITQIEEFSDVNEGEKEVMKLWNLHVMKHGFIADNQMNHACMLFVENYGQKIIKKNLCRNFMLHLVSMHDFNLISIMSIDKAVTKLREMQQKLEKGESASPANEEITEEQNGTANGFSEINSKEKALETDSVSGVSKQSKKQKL
Sequence of PRC2 containing wt EZH2 (Q09028 whole entry partner): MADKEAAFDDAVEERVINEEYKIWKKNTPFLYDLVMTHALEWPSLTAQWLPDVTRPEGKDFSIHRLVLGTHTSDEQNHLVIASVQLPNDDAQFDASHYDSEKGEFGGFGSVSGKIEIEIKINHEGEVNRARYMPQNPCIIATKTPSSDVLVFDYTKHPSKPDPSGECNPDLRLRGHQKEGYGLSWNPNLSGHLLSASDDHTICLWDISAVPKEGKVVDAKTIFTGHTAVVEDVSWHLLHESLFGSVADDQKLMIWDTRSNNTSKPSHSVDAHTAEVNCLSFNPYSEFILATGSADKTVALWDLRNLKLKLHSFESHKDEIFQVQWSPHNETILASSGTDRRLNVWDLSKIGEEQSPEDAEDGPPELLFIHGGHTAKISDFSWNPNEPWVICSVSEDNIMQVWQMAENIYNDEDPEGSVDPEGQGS
Sequence of PRC2 containing wt EZH2 (Q6ZN18 whole entry partner): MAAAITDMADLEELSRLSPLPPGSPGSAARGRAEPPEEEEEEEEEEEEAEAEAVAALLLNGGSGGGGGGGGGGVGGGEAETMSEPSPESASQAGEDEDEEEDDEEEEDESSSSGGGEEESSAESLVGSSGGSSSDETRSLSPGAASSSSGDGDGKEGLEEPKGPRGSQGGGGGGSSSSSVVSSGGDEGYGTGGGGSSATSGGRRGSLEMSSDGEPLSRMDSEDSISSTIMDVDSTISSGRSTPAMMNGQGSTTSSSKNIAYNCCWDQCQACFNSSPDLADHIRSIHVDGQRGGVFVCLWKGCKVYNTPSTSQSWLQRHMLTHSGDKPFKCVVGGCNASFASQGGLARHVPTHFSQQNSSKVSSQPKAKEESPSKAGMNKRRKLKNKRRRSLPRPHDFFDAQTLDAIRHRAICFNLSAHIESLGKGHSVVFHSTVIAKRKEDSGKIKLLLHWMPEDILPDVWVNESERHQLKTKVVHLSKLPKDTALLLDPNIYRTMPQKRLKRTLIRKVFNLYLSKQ

CSc1cc(C)[nH]c(=O)c1CNC(=O)c1c(C)n([C@H](C)[C@H]2CC[C@H](NC3(C)COC3)CC2)c2ccccc12 (single isomer, unassigned) [1 (isomer 1)] and CSc1cc(C)[nH]c(=O)c1CNC(=O)c1c(C)n([C@H](C)C2CCC(N(C)C3(C)COC3)CC2)c2ccccc12 (single isomer, unassigned) [3 (isomer 1)] cannot be ordered by IC50: less than 0.0005 µM for the first, less than 0.0005 µM for the second.

CSc1cc(C)[nH]c(=O)c1CNC(=O)c1c(C)n([C@H](C)[C@H]2CC[C@H](NC3(C)COC3)CC2)c2ccccc12 (single isomer, unassigned) [1 (isomer 2)] and CSc1cc(C)[nH]c(=O)c1CNC(=O)c1c(C)n([C@H](C)C2CCC(N(C)C3(C)COC3)CC2)c2ccccc12 (single isomer, unassigned) [3 (isomer 2)] cannot be ordered by IC50: less than 0.0005 µM for the first, less than 0.0005 µM for the second.

First: CSc1cc(C)[nH]c(=O)c1CNC(=O)c1c(C)n([C@H](C)C2CCC(NC3COC3)CC2)c2ccccc12 (single isomer, unassigned) [2 (isomer 1)]
Second: CSc1cc(C)[nH]c(=O)c1CNC(=O)c1c(C)n([C@H](C)C2OCC(NC(C)(C)C)CO2)c2ccccc12 (single isomer, unassigned) [5 (isomer 1)]
The IC50 of the first is lower: less than 0.0005 µM for the first, 0.0005 to 0.005 µM for the second. The first is the more potent here.

CSc1cc(C)[nH]c(=O)c1CNC(=O)c1c(C)n([C@H](C)C2CCC(NC3COC3)CC2)c2ccccc12 (single isomer, unassigned) [2 (isomer 2)] and CSc1cc(C)[nH]c(=O)c1CNC(=O)c1c(C)n([C@H](C)C2OCC(NC(C)(C)C)CO2)c2ccccc12 (single isomer, unassigned) [5 (isomer 2)] cannot be ordered by IC50: less than 0.0005 µM for the first, less than 0.0005 µM for the second.

In the case of COc1cnc2c(c1)c(C(=O)NCc1c(SC)cc(C)[nH]c1=O)c(C)n2[C@H](C)C1CCC(N2CC(OC(F)F)C2)CC1 (single isomer, unassigned) [125 (isomer 2)], the IC50 is reported as less than 0.0005 µM.

Same assay, conditions: EZH2 (IC50), 30 pM PRC2 containing wt EZH2; 3-5 h pre-incubation

COC1CN(C2CCC([C@@H](C)n3c(C)c(C(=O)NCc4c(SC)cc(C)[nH]c4=O)c4ccccc43)CC2)C1 (single isomer, unassigned) [4 (isomer 1)] gave an IC50 of less than 0.0005 µM.

Same assay, conditions: read-out: EZH2 (IC50); 30 pM PRC2 containing wt EZH2; 3-5 h pre-incubation

Work on COC1CN(C2CCC([C@@H](C)n3c(C)c(C(=O)NCc4c(SC)cc(C)[nH]c4=O)c4ccccc43)CC2)C1 (single isomer, unassigned) [4 (isomer 2)] yielded an IC50 of less than 0.0005 µM.
